Assay results reported in article PMC4301837, “Aldosterone synthase inhibition: cardiorenal protection in animal disease models and translation of hormonal effects to human subjects” (Journal of Translational Medicine, 2014).
Like-named read-outs stand apart in the source and are kept apart here.

Experiments:
[1] = tested on: dTG rats with pre-established cardiorenal disease; assay: Survival study in older, enalapril-pre-treated dTG rats with established cardiorenal disease; format: in vivo, rat; conditions: older dTG rats
Experimental: In order to study the effects of aldosterone inhibition on survival in older dTG rats with established cardiorenal disease, we modified the model by treating male dTG rats during their developmental stage (3–8 weeks of age) with the angiotensin-converting enzyme (ACE) inhibitor enalapril.
In experiments with older dTG rats (treated with enalapril for 5 weeks), urine collections and echocardiographic examinations were conducted as above but systolic arterial pressure was estimated in conscious rats by tail plethysmography (Model# 56-1, IITC Life Science Inc., Woodland Hills, CA, USA) using appropriate tail cuff sensors (B63), and restrainer (size 80), at a constant chamber temperature of 30°C.
In the survival studies, dTG rats were euthanized if they became moribund. Moribundity was defined as a decrease in body weight of ≥ 20% from “baseline” or two consecutive days of observable hematuria. The study endpoint was the age of the animal at death or at moribundity requiring euthanization.

[2] = tested on: ACTH-stimulated aldosterone, cortisol and precursors; assay: Human ACTH (cortisol) stimulation test, multiple-dose phase; format: in vivo
Experimental: (§1) The multiple-dose phase involved four cohorts, each of 18 subjects. […] Subjects were placed on a controlled sodium restricted diet from the day before dosing until 72 h post-dose and were housed at the study center for this period. Until Day 7, the diet was ~50–60 mEq Na^+/~50–60 mEq K^+. On the morning of Day 8, potassium in the diet was increased to ~100 mEq. Based on urinary electrolyte values obtained from placebo subjects on Day 7 and Day 14 respectively, the actual diet was ~95 ± 63 mEq Na^+/46 ± 12 mEq K^+ for the first week and ~86 ± 42 mEq Na^+/69 ± 25 mEq K^+ for the second week.
Pharmacodynamic assessments included the measurement of aldosterone, plasma renin activity (PRA), cortisol and 11-deoxycortisol during both phases of the study. In addition, ACTH and 11-DOC were measured during the multiple-dose phase. During the single-dose phase, blood samples for pharmacodynamic assessments were collected pre-dose and at 1, 2, 4, 8, 12 and 24 h post-dose. During the multiple-dose phase, samples were collected pre-dose and at 1, 2, 4, 8 and 12 h post-dose on Days −1 (baseline), 1, 7, 8 and 14, as well as pre-dose on Days 2 and 9, and at 24, 48 and 72 h after the final dose (i.e., on Days 15, 16 and 17). In addition, subjects underwent a cortisol stimulation test on Days –2, 6 and 13; An ACTH analog was injected 2 h post-dose and blood samples were collected prior to, and at 30 and 60 min after, the ACTH injection. Aldosterone and PRA levels were measured by radioimmunoassay and cortisol and 11-deoxycortisol levels by LC-MS/MS (see Additional file 1).
All subjects with evaluable pharmacodynamic measurements were included in the analysis, and data from the two study phases were analyzed separately. An analysis of covariance (ANCOVA) with treatment as factor and baseline value as covariate was performed to evaluate changes from baseline in pharmacodynamic parameters at each time point.
Aldosterone levels were measured by radioimmunoasssay with 100 μl of EDTA plasma or 500 μl of urine using the DSL-8600 ACTIVE® Aldosterone Coated-Tube radioimmunoassay kit from Diagnostic Systems Laboratories, Inc. (LLOQ was 69 pmol/l [25.0 pg/ml] for plasma and 2 nmol/l [0.75 ng/ml] for urine).
Cortisol, 11-deoxycortisol and 11-deoxycorticosterone levels were measured by LC/MS/MS of 250 μL of EDTA plasma or 500 μL urine (LLOQ was 13.79 nmol/L [5.00 ng/mL] for cortisol and 2.89 nmol/L [1.00 ng/mL] for 11-deoxycortisol and 11-deoxycorticosterone in plasma and 2.76 nmol/L [1.00 ng/mL] for cortisol in urine). For plasma cortisol, based on 9 standards ranging from 5–300ng/ml (>70 replicates of each) run at the time of sample analysis, the coefficient of variation (CV) and were 2.14–5.32% and 97.6–104%, respectively. For urine cortisol, based on 7 standards ranging from 1–100ng/ml (22 replicates of each) run at the time of sample analysis, CV and accuracy were 1.55–4.22% and 97.0–101.6%, respectively. For plasma 11-deoxycortisol, based on 9 standards ranging from 1–300ng/ml (>50 replicates of each) run at the time of sample analysis, CV and accuracy were 3.69–8.22% and 91.33–108%, respectively. For 11-deoxycorticosterone, based on 8 standards ranging from 0.05–1 ng/ml (19–20 replicates of each) run during assay validation, CV of the plasma assay was 2.38–8.71% and bias was -2.4–4.0%.

[3] = molecular target: recombinant human 11β-hydroxylase (CYP11B1) (Homo sapiens, UniProt P15538); conditions: Lineweaver–Burk plots; at higher concentrations
Experimental: (§2) Recombinant rat CYP11B2 and CYP11B1 enzymes were prepared similarly. All cell lines were maintained in Dulbecco’s modified Eagle’s medium supplemented with 10% fetal bovine serum, 0.5× antibiotic, 800 μg/mL geneticin and 250 μg/mL hygromycin (double-selection medium; all from Invitrogen, Carlsbad, CA, USA).
(§3) Human CYP11B2 and CYP11B1 assays were performed as described previously [20]. The rat and monkey assays were conducted similarly, using 11-DOC as substrate.
(§4) Half-maximal inhibitory concentration (IC50) values were derived using a non-linear least-squares curve-fitting program (XLfit; ID Business Solutions Inc., Bridgewater, NJ, USA).
(§5) Aldosterone concentration was measured using 96-well plates. Each test sample was incubated with 0.02 µCi D-[1,2,6,7-^3H(N)]aldosterone (PerkinElmer, Boston, MA, USA) and 0.2 µg anti-aldosterone antibody (ATCC, Manassas, VA, USA) in phosphate-buffered saline containing 0.1% Triton X-100, 0.1% bovine serum albumin, and 12% glycerol (in a total volume of 200 µL) at room temperature for 1 h. Anti-mouse polyvinyltoluene (PVT) scintillation proximity assay (SPA) beads (50 µL: GE Health Sciences, Piscataway, NJ, USA) were then added to each well and incubated overnight at room temperature prior to counting in a Microbeta plate counter (PerkinElmer). […] The amount of aldosterone, cortisol or corticosterone was calculated by comparison with a standard curve.

[4] = rat, over the tested dose range
Experimental: (§6) All animal procedures were conducted in accordance with an approved Novartis Animal Care and Use Committee protocol and the Guide for the Care and Use of Laboratory Animals as described previously [21]. Male S-D rats (~500 g) were purchased from Taconic Farms (Germantown, NY, USA) and acclimatized in the Novartis vivarium (12 h light/dark cycle; 72°F; 55% relative humidity) for at least 7 days before being used in experiments. Rats were provided normal chow (Harlan Teklad 8604) and water ad libitum except for a partial fast before and during an experiment.
(§7) Both rats and monkeys were surgically instrumented with chronically indwelling femoral venous and arterial catheters to allow intravenous administration of substances and repeated blood sampling.
(§8) All pharmacokinetic parameters were derived from concentration–time data by non-compartmental analyses and were calculated using WinNonlin (Enterprise, Version 5.2; Pharsight Corporation, Palo Alto, CA, USA).

[5] = tested on: Ang-II-stimulated aldosterone synthesis; conditions: rat, Ang II stimulation
Experimental: (§9) Male S-D rats (~500 g) were purchased from Taconic Farms (Germantown, NY, USA) and acclimatized in the Novartis vivarium (12 h light/dark cycle; 72°F; 55% relative humidity) for at least 7 days before being used in experiments. Rats were provided normal chow (Harlan Teklad 8604) and water ad libitum except for a partial fast before and during an experiment.
(§10) Study protocols for the rat models of Ang-II- and ACTH-stimulated aldosterone synthesis followed a published protocol [21]. For the Ang-II-infusion model, an initial loading dose of 300 ng/kg angiotensin II (Ang II) was followed by 100 ng/kg/min intravenous (i.v.) infusion for 9 h. […] After 1 h of Ang II or ACTH infusion, a blood sample was collected for determining the post-Ang II or ACTH ‘baseline’ (i.e., secretagogue-elevated) plasma aldosterone and corticosterone concentrations. […] In both models, infusion continued for a further 8 h.
(§11) Blood samples were centrifuged at 20,000g for 20 min at 4°C to separate out plasma, which was aliquoted and frozen at −70°C until required for analysis. Plasma aldosterone and cortisol concentrations from animal studies were measured using commercially available solid-phase ^125I radioimmunoassay kits (Coat-A-Count Aldosterone TKAL1; Coat-A-Count Cortisol TKCO1; Siemens Healthcare Diagnostic Products).

[6] = tested on: ACTH-stimulated aldosterone and corticosterone synthesis; conditions: rat, ACTH stimulation
Experimental: as §9, §10, §11

[7] = monkey, 15–150 μg/kg
Text: (§12) Male cynomolgus monkeys (Macaca fascicularis) were selected for their cooperation and ability to sit comfortably in chairs and were conditioned to remain in the chairs for extended periods before the studies began. On the day of the experiment, monkeys were removed from their home cages with a pole/collar device (Primate Products, Inc., Woodside, CA, USA), secured in their restraining chairs, and transported to the quiet study room. The monkeys remained in the chair for the duration of the experiment (up to 10 h), during which time an enrichment and feeding regimen was followed.
Compound doses in the monkey model are quoted as free base equivalents.
Six monkeys (4.9–8.8 kg) were selected and were divided into two groups of three animals. Experiments were not initiated until after at least 2 weeks of recovery from the catheter/vascular access port (VAP) surgeries. Thirty minutes before the start of the experiment, a Huber needle was inserted transdermally into the VAP for the collection of blood samples and injection of ACTH. Between samplings, catheters/VAPs were flushed with saline and kept patent with 10 U/mL heparin. […]
as §8

[8] = tested on: ACTH-stimulated plasma aldosterone and cortisol
Text: as §12
Six monkeys (4.9–8.8 kg) were selected and were divided into two groups of three animals. Experiments were not initiated until after at least 2 weeks of recovery from the catheter/vascular access port (VAP) surgeries. Thirty minutes before the start of the experiment, a Huber needle was inserted transdermally into the VAP for the collection of blood samples and injection of ACTH. Between samplings, catheters/VAPs were flushed with saline and kept patent with 10 U/mL heparin.
Blood samples (0.3 mL in 15 U/mL heparin) for baseline pharmacokinetic and pharmacodynamic assessments were collected at 0.5 h, 0.25 h and immediately before dosing. […] Blood samples were collected at 0.125, 0.25, 0.5, 0.75 and 1 h after ACTH injection to assess the time course of plasma aldosterone and cortisol stimulation. […] Between the 8 h and 23.5 h collections, the Huber needles were removed and the monkeys were returned to their home cages. All instrumentation was removed after the last sample at 24 h.
Data and statistical analyses were conducted with Microsoft Excel (Version 2007, Microsoft, Redmond, WA, USA). All differences were considered statistically significant at a two-sided P value ≤ 0.05.
as §11

[9] = tested on: Ang II-stimulated aldosterone release; set-up: method as in D. Rigel, personal communication; conditions: dogs; ref D. Rigel, personal communication; read-out: EC50, inhibition of Ang II-stimulated aldosterone release; cited from earlier work
in vivo = conditions: male, Sprague-Dawley, rat, plasma, po
Experimental: as §6, §7, §8

in vitro = conditions: rat, plasma
clinical = conditions: male, human, plasma; for half-life: t½
Experimental: Healthy male volunteers, 18–45 years of age and with a body mass index of 18–28 kg/m^2 were eligible for this study. Subjects had to be non-smokers with normal hepatic and renal function for inclusion. […] All subjects provided informed written consent before participating in any study procedures. The study was conducted at two centers in the Netherlands and one in Germany and was approved by the Independent Ethics Committee and/or Institutional Review Board for each study center (Stichting Beoordeling Ethiek Biomedisch Onderzoek, Assen, Netherlands; Ethics Committee of the Land, Berlin, Germany) and was conducted in accordance with Good Clinical Practice and the ethical principles of the Declaration of Helsinki.
This was a randomized, double-blind, placebo-controlled, interwoven single- and multiple-ascending-dose study. In the single-dose phase, five cohorts of eight subjects each were enrolled. […] Assessments were made throughout the treatment period, and at an end of study assessment 7 days post-dose.
as §1
Blood samples for pharmacokinetic assessment were obtained pre-dose and at regular intervals up to 72 h post-dose in the single-dose phase of the study. In the multiple-dose phase, blood samples were taken on Day 1 and Day 14 at regular intervals up to 36 and 72 h post-dose, respectively, and pre-dose on Days 3, 4, 7 and 11. Blood samples (2 or 4 mL) were collected into an EDTA containing tube, plasma extracted and samples frozen at –70°C until analysis.
All subjects with quantifiable pharmacokinetic measurements were included in the pharmacokinetic data analysis. Pharmacokinetic parameters were analyzed separately for the single- and multiple-dose phases and were determined using non-compartmental analyses.

[10] = tested on: patients with essential hypertension; conditions: cited from earlier work
[11] = molecular target: recombinant rat 11β-hydroxylase (CYP11B1) (Rattus norvegicus, UniProt P15393); assay: biochemical
Experimental: as §2, §3, §4, §5

[12] = molecular target: aldosterone synthase (CYP11B2), rat adrenal homogenate (Rattus norvegicus, UniProt P30099); assay: biochemical
Experimental: Rat adrenal homogenates were prepared from the adrenal glands of male Sprague-Dawley (S-D) rats as described previously [21]. Monkey CYB11B2 and CYB11B1 homogenates were prepared from the adrenal glands of female cynomolgous monkeys. Monkey adrenal gland tissue was minced and homogenized on ice in a glass tissue grinder in 1 mL of ice-cold homogenization buffer per 100 mg tissue (adding 2.7 mmol/L CaCl2 and one ethylenediaminetetraacetic acid (EDTA)-free protease inhibitor tablet per 50 mL buffer) [20]. The homogenized material was centrifuged at 450 g for 5 min at 4°C, and the supernatant brought to a final glycerol concentration of 5%, flash-frozen in liquid nitrogen, and stored at −80°C until analysis. Aldosterone, cortisol and corticosterone concentrations were quantified using 96-well plate assays (see Additional file 1).
The rat and monkey assays were conducted similarly, using 11-DOC as substrate.
as §4
Aldosterone concentration was measured using 96-well plates. […] The amount of aldosterone, cortisol or corticosterone was calculated by comparison with a standard curve.

[13] = tested on: Ang-II-stimulated aldosterone synthesis; assay: animal or person; conditions: Rattus norvegicus, po, read-out: ED50 for inhibiting Ang-II-stimulated aldosterone response
Experimental: as §9, §10, §11

[14] = approximately 2 h after oral dosing
[15] = oral, single-dose phase, doses up to 200 mg
[16] = 524 patients, 0.25 to 1 mg, 8 weeks

recombinant human 11β-hydroxylase (CYP11B1), sequence (P15538 25-503): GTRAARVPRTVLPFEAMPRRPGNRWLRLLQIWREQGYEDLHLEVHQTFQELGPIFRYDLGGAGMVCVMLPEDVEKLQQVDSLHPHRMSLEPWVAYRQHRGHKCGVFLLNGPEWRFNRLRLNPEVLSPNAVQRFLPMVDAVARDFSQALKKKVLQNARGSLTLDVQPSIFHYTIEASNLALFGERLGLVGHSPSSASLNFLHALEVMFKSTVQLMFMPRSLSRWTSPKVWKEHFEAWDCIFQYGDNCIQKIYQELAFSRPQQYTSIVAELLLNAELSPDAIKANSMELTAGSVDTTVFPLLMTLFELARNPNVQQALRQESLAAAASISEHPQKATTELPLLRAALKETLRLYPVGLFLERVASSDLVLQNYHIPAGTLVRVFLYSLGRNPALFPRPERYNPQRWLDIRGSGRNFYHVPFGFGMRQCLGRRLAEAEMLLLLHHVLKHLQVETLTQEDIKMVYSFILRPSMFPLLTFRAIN
aldosterone synthase (CYP11B2), rat adrenal homogenate, sequence (P30099 35-510): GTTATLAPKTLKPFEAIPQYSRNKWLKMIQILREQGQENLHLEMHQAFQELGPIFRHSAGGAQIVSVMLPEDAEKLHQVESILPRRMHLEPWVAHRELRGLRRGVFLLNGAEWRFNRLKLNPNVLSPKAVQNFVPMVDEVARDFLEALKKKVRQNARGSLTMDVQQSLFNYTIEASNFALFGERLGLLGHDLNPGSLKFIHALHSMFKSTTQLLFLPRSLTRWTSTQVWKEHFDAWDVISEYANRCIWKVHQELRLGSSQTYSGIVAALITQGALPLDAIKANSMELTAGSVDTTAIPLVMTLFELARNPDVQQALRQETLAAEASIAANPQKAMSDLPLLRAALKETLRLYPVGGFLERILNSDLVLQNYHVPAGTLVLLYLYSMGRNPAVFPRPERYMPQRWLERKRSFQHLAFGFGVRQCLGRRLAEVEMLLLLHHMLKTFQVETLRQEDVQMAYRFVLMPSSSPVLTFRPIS
recombinant rat 11β-hydroxylase (CYP11B1), sequence (P15393 25-499): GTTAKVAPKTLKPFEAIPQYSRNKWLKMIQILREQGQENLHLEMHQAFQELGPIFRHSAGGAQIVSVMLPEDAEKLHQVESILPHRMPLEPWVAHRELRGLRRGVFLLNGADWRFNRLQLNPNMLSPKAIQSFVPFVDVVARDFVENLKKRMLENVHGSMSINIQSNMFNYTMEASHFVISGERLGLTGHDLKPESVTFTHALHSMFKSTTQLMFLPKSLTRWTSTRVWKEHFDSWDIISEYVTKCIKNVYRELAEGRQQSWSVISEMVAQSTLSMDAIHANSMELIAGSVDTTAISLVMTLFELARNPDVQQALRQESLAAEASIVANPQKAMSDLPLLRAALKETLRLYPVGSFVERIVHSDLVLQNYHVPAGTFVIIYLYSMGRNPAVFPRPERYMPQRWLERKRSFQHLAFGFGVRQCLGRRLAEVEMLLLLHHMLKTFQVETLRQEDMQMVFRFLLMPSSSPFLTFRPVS

For `N#Cc1ccc([C@H]2CCc3cncn32)c(F)c1` [LCI699], the “prolongation of median survival” value ([1]; 30 mg/kg/day in drinking water from 24 weeks of age, P = 0.07) was 23 weeks, the “treated rats that died suddenly” value ([1]; LCI699 30 mg/kg/day, n = 7) was “two of the seven” and the “peak reduction of ACTH-stimulated cortisol levels from baseline” value (from here on “peak reduction”) ([2]; LCI699 0.5 mg, Day 6) was 1.8%. The “effect on ACTH-stimulated 11-DOC levels” value ([2]; LCI699 0.5 mg, eplerenone 100 mg) was “no significant effect”, the “maximal increase in ACTH-stimulated 11-DOC from baseline” value ([2]; LCI699 1 mg, Day 6) was 95% and the “peak reduction” value ([2]; LCI699 1 mg, Day 6) was 11%. For the same compound, the “effect on ACTH-stimulated cortisol response” value ([2]; LCI699 1 mg, Day 13) was “attenuation of the ACTH-stimulated cortisol response”, the “maximal increase in ACTH-stimulated 11-DOC from baseline” value ([2]; LCI699 3 mg, Day 6) was 407% and the “peak increase in ACTH-stimulated 11-deoxycortisol from baseline” value ([2]; LCI699 3 mg, Day 6) was 82%. For the same compound, the “peak reduction” value ([2]; LCI699 3 mg, Day 6) was 22%, the “increase in ACTH-stimulated 11-DOC levels” value ([2]; LCI699 3 mg, Day 13) was 168% and the “peak increase in ACTH-stimulated 11-deoxycortisol from baseline” value ([2]; LCI699 3 mg, Day 13) was 114%. For the same compound, the “time to complete reversal of cortisol suppression after discontinuing” value ([2]; LCI699 10 mg) was 4 to 9 days, the “effect on ACTH-stimulated cortisol” value ([2]; LCI699 10 mg, Days 6 and 10) was “further suppressed” and the “peak inhibition of ACTH-stimulated aldosterone levels from baseline (Day −2)” value ([2]; LCI699 0.5–3 mg, Day 6) was 41–64%. For the same compound, the “effect on cortisol precursors (ACTH-stimulated)” value ([2]; eplerenone 100 mg and lower doses of LCI699 (0.5, 1 mg), Day 6 or Day 13) was “no significant effect”, the “mode of inhibition of 11β-hydroxylase” value [3] was “reversible competitive inhibitor” and the “dose proportionality of pharmacokinetics” value [4] was “dose-proportional”. The “dose above which inhibition of stimulated plasma aldosterone shows an apparent plateau” value ([5]; oral) was “above 1 mg/kg”, the “Maximal reduction in plasma aldosterone from baseline” value [5, 14] was 80% and the “dose above which inhibition of stimulated plasma aldosterone shows an apparent plateau” value ([6]; oral) was > 10 mg/kg. For the same compound, the “Maximal reduction in plasma aldosterone from baseline” value [6, 14] was 80%, the “dose proportionality of pharmacokinetics” value [7] was “dose-proportional” and the “maximal inhibition of aldosterone production at the upper dose” value ([8]; Ang-II- and ACTH-stimulation models in rats and monkeys) was 80–90%. For the same compound, the “decrease in ACTH-stimulated plasma aldosterone response compared with vehicle control” value ([8]; monkey, 150 μg/kg oral, 3 h prior to ACTH) was ~90%, the “inhibition of ACTH-stimulated cortisol synthesis” value ([8]; monkey, 5–150 μg/kg oral) was “No significant inhibition” and the “recovery of plasma aldosterone levels” value ([8]; monkey, 5–150 μg/kg oral) was “returned to baseline 24 h after dosing”. For the same compound, the EC50 [9] was 0.041 µM, the half-life (in vivo) was 2 to 5 h and the fraction unbound (in vitro) was 0.641. For the same compound, the Tmax (clinical; [15]) was ~1 h, the half-life (clinical; oral, after both single and multiple doses) was ~4 h and the half-life (clinical; [15]) was ~4 h. For the same compound, the Tmax (clinical; po, 0.5–3 mg once daily oral) was ~1 h, the “hypertensive patients with attenuated ACTH-stimulated cortisol response” value ([10]; 1 mg once daily) was “approximately 20%” and the “placebo-corrected reduction in ambulatory diastolic blood pressure” value [10, 16] was 3–6 mmHg. The “placebo-corrected reduction in ambulatory systolic blood pressure” value [10, 16] was 6–9 mmHg, the “subjects with suppressed ACTH-stimulated cortisol release” value ([10]; total daily dose of 1 mg) was “approximately 20%” and the IC50 [11] was 0.41 ± 0.005 µM. For the same compound, the IC50 [12] was 0.802 µM and the ED50 [13] was 0.6 mg/kg.
